Activity calls are given as the source filed them. The calls are words filed in the database; no cut-off is given here.
These molecules were tested against T1, Solute carrier family 2, facilitated glucose transporter member 4 (Rattus norvegicus) (UniProt P19357) (assay: Enhancement of GLUT4 translocation in rat L6 cells expressing pIRAP-mOrange cDNAs at 10 uM after 10 mins by fluorescence assay relative to control).
T1 sequence (whole entry): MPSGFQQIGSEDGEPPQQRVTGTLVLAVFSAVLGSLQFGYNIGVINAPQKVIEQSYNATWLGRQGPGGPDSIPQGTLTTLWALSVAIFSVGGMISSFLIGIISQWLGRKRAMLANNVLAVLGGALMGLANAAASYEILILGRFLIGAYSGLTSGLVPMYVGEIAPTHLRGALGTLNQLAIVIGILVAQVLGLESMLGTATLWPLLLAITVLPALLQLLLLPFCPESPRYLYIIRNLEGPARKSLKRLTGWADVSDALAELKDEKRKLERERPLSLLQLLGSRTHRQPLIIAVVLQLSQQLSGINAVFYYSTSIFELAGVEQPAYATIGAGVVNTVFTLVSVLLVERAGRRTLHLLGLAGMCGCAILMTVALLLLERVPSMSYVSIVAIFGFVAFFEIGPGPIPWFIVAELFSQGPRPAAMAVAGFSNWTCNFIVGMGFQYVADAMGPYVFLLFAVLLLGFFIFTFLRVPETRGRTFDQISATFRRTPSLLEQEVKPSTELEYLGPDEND
Type: cell-based

Row | SMILES | fold change (FC) | Activity
1 | C[C@H]1[C@H](C)CC[C@]2(C(=O)O)CC[C@]3(C)C(=CC[C@@H]4[C@@]5(C)C[C@@H](O)[C@H](O)C(C)(C)[C@@H]5CC[C@]43C)[C@H]12 | 1.78 | –
2 | C=C(C)[C@@H]1CC[C@]2(C(=O)O)CC[C@]3(C)[C@H](CC[C@@H]4[C@@]5(C)CC[C@H](O)C(C)(C)[C@@H]5CC[C@]43C)[C@@H]12 | 2.38 | –
3 | C[C@H]1[C@H](C)CC[C@]2(C(=O)O)CC[C@]3(C)C(=CC[C@@H]4[C@@]5(C)C[C@@H](O)[C@H](O)[C@@](C)(CO)[C@@H]5CC[C@]43C)[C@H]12 | 0.47 | –
4 | CC1(C)CC[C@]2(C(=O)O)CC[C@]3(C)C(=CC[C@@H]4[C@@]5(C)CC[C@H](O)C(C)(C)[C@@H]5CC[C@]43C)[C@@H]2C1 | 0.7 | –
5 | O=C1c2c(O)cc(O)cc2O[C@@H](c2ccc(O)cc2)[C@@H]1O | – | inactive
6 | O=c1c(O[C@@H]2O[C@H](CO)[C@@H](O)[C@H](O)[C@H]2O)c(-c2ccc(O)c(O)c2)oc2cc(O)cc(O)c12 | – | inactive
7 | C[C@H]1[C@H](C)CC[C@]2(C(=O)O)CC[C@]3(C)C(=CC[C@@H]4[C@@]5(C)C[C@@H](O)[C@H](O)[C@@](C)(CO)[C@@H]5[C@H](O)C[C@]43C)[C@H]12 | 0.7 | –
8 | C[C@H]1[C@H](C)CC[C@]2(C(=O)O)CC[C@]3(C)C(=CC[C@@H]4[C@@]5(C)CC[C@H](O)C(C)(C)[C@@H]5CC[C@]43C)[C@H]12 | 0.7 | –
9 | O=C(O)c1cc(O)c(O)c(O)c1 | – | inactive
10 | O=c1c(OC2O[C@H](CO)[C@@H](O)[C@H](O)[C@H]2O)c(-c2cc(O)c(O)c(O)c2)oc2cc(O)cc(O)c12 (some centres not stated) | – | inactive
11 | C[C@@H]1CC[C@]2(C(=O)O)CC[C@]3(C)C(=CC[C@@H]4[C@@]5(C)C[C@@H](O)[C@@H](O)C(C)(C)[C@@H]5CC[C@]43C)[C@@H]2[C@]1(C)O | 0.7 | –
12 | CC(C)CC1C2=C(Oc3cc(O)c(C(=O)CCc4ccccc4)c(O)c31)C(C)(C)C(=O)C(C)(C)C2=O (racemic) | 0.49 | –

From ChEMBL document CHEMBL3297643, “Chemical constituents from Eucalyptus citriodora Hook leaves and their glucose transporter 4 translocation activities” (Bioorg Med Chem Lett, 2014)
